Assay results published in US8044103B2, “Cyclic dipeptides and azetidinone compounds and their use in treating CNS injury and neurodegenerative disorders” (Georgetown University, priority 1998, dated 2011).

Legend:
[1] = tested on: traumatic spinal cord injury; conditions: in vivo; cited from earlier work
[2] = tested on: rats following moderate fluid percussion injury; test: Mortality after moderate fluid percussion injury; format: in vivo, Male Sprague-Dawley rats; conditions: 1 mg/kg i.v. 30 min following moderate fluid percussion injury; died before the end of the study; saline 21.4% and 37.5%
Experimental: Rats were anesthetized with sodium pentobarbital (70 mg/kg i.p.), intubated, and implanted with femoral venous and arterial catheters. Brain temperature was assessed indirectly through a thermister in the temporalis muscle. Body temperature was maintained through a feedback-controlled heating blanket. Blood pressure was continuously monitored, and arterial blood gases analyzed periodically. After the animal was placed in a stereotaxic frame, the scalp and temporal muscle were reflected, and a small craniotomy (5 mm) located midway between the lambda and bregma sutures over the left parietal cortex allowed insertion of a Leur-Loc that is cemented in place. The fluid-percussion head injury device, manufactured by the Medical College of Virginia, consists of a plexiglass cylindrical reservoir filled with isotonic saline; one end includes a transducer that is mounted and connected to a 5 mm tube that attaches through a male Leur-Loc fitting to the female Leur-Loc cemented at the time of surgery. A pendulum strikes a piston at the opposite end of the device, producing a pressure pulse of approximately 22 msec duration, leading to deformation of underlying brain. The degree of injury is related to the pressure pulse, expressed in atmospheres (atm): 2.6 atm in our laboratory produces a moderate injury with regard to neurological and histological deficit. Sham (control) animals undergo anesthesia and surgery without fluid percussion brain injury. […]
(§1) Continuous variables compared across groups were examined using an analysis of variance (ANOVA) followed by Bonferroni correction (rightin reflex). Continuous variables subjected to repeated measurements over a period of time (cardiovascular and core temperature measurements) were analyzed using a repeated measurements ANOVA followed by Tukey's pairwise comparison at each time point. Ordinal measurements (composite neurological scores) were evaluated using the non-parametric Kruskal-Wallis ANOVA with individual, non-parametric Mann-Whitney U-tests. […]

[3] = tested on: mice following controlled cortical impact injury (CCI); test: Beam walking task after controlled cortical impact injury (chronic neurological recovery); format: in vivo, Male C57Bl/6 mice; conditions: 1 mg/kg following CCI injury; small group size (n=6)
Experimental: Male C57Bl/6 mice (20-25 g) were obtained from Taconic Farms (Germantown, N.Y.) and housed in an area directly adjoining surgical and behavioral rooms for at least 1 week prior to any procedures. All mice were maintained at a constant temperature (22±2° C.) and a 12 hr light/dark cycle, with lights on at 6 am and all behavioral testing performed during the light cycle. Food and water were available ad libitumn.
The injury device consisted of a microprocessor-controlled pneumatic impactor with a 3.5 mm diameter tip. The impactor is vertically mounted on a mill table (Sherline, USA) which allows for precise adjustment in the vertical plane above the mouse head, which itself is secured to a stereotaxic apparatus (David Kopf Instruments, CA) attached to the instrument. The core rod of a linear voltage differential transducer (LVDT, Serotec, USA) is attached to the lower end of the impactor to allow measurement of velocities between 3.0 and 9.0 m/s. Velocity of the impactor is controlled by fine tuning both positive and negative (back) air pressures. An oscilloscope (Tektronix, USA) records the time/displacement curve produced by the downward force on the LVDT, allowing precise measurement of the impactor velocity.
Surgical anesthesia was induced and maintained with 4% and 2% isoflurane respectively, using a flow rate of 1.0-1.5 l oxygen per minute. Depth of anesthesia was assessed by monitoring respiration rate and palpebral and pedal-withdrawal reflexes. The animal was then placed onto a heated pad and core body temperature was monitored and maintained at 38+/−0.2° C. The head was mounted in a stereotaxic frame and the surgical site clipped and prepared with a series of three Nolvasan scrubs followed by sterile saline rinses. A 10 mm mid-line incision was made over the skull, the skin and fascia reflected, and a 4 mm craniotomy made on the central aspect of the left parietal bone with a tissue punch (Roboz, USA). Great care was taken with the removal of the parietal bone to avoid injury to the underlying dura mater which was continuously bathed in sterile normal saline warmed to 37.5° C. The impounder tip of the pneumatic injury device was cleaned with a pad, soaked in absolute alcohol, positioned to the surface of the exposed dura and automatically withdrawn the 44 mm stroke distance. Following injury at a moderate (6.0 m/s velocity, 1 mm tissue deformation depth) level, the incision was closed with interrupted 6-0 silk sutures, anaesthesia was discontinued and the mouse was placed into a heated cage to maintain normothermia for 45 minutes post-injury. All animals were monitored carefully for at least 4 hours post-surgery and then daily. To minimize variation between animals due to anaesthesia during acute neurological testing, 20 minutes was allowed for surgery and 5 minutes for suturing for each animal.
Conscious mice were placed in a mouse restrainer and injected via the lateral tail vein with either normal saline (injured controls; n=6), 1 mg/kg Compound 2a (n=8), Compound 10b (n=6), Compound 11b (n=6) or Compound 14c (n=6) at 30 minutes following controlled cortical impact injury (CCI). The values for n represents the number of mice in the particular treatment group. The investigator was blinded to drug treatment both at the time of surgery and for neurological and behavioral scoring.
Chronic neurological recovery was evaluated for all animals using a beam walking task, a method which is particularly good at discriminating fine motor coordination differences between injured and sham-operated animals. The device consisted of a narrow wooden beam 6 mm wide and 120 mm in length which was suspended 300 mm above a 60 mm-thick foam rubber pad. The mouse was placed on one end of the beam and the number of footfaults for the right hindlimb recorded over 50 steps counted in either direction on the beam. A basal level of competence at this task was established before surgery with an acceptance level of <10 faults per 50 steps. […]

[4] = tested on: cats subjected to brainstem compression; conditions: cited from earlier work
[5] = tested on: traumatic spinal cord injury in cats; conditions: cited from earlier work
[6] = in vivo; cited from earlier work
[7] = tested on: head impact trauma in mice; conditions: cited from earlier work
[8] = tested on: fully conscious and unrestrained rats; test: Mean arterial blood pressure in conscious unrestrained rats (autonomic study); format: in vivo; conditions: 1 mg/kg i.v., over the duration of testing
Text: To assess autonomic responses to the novel TRH analogues, a separate group of rats were anesthetized with 4% isoflurane (1.5 L/min). Catheters were then placed into the right artoid artery and right jugular vein and exteriorized at the back of the neck. Rats were separated one per cage and allowed to recover from anesthesia. The exteriorized catheters were suspended above the rat to prevent biting. Mean […] blood pressure (MAP) was continuously recorded via a transducer connected directly to the arterial catheter for the duration of the study. At 1 h following catheter placement, rats were administered vehicle or drug via the catheter in the jugular vein as described below. […]
as §1

[9] = tested on: lightly anesthetized rats; test: Latency to recover righting reflex after light anesthesia (analeptic study); format: in vivo; conditions: i.v., doses of 1 mg/kg and 10 mg/kg (FIG. 11); after 40 mg/kg i.p. sodium pentobarbitone
Experimental: (§2) Additional groups of uninjured rats were tested for autonomic and analeptic responses immediately prior to and up to 60 min. following drug administration. For the analeptic study, rats were first anesthetized with 40 mg/kg i.p. sodium pentabarbitone and placed onto an unheated pad on the laboratory bechtop at room temperature (22±2° C.). A thermister probe was placed in the rectum to measure core body temperature. After a 10 min. period, rats were administered vehicle or drug as described below via the tail vein. Time to recovery of the righting-reflex was subsequently determined while temperature was recorded at 5 min. intervals for all animals. […]
as §1

[10] = tested on: central facilitating activity; conditions: cited from earlier work
rats following trauma = conditions: cited from earlier work
[11] = tested on: lightly anesthetized rats; test: Core body temperature in lightly anesthetized uninjured rats (analeptic study); format: in vivo; conditions: 1 mg/kg i.v.; over 60 min following anesthesia; p<0.001 vs all other groups at 20-60 min
Experimental: as §2, §1

## NC(=O)[C@@H]1CCCN1C(=O)[C@H](Cc1cnc[nH]1)NC(=O)c1cc(=O)[nH]c(=O)[nH]1 [CG3509]
[1]
  outcome following traumatic spinal cord injury: improve outcome

## C[C@H]1SC[C@@H](C(=O)N[C@H](Cc2c[nH]cn2)C(=O)N2CCC[C@H]2C(N)=O)NC1=O [CG3703]
[1]
  outcome following traumatic spinal cord injury: improve outcome

## O=C1NC2(CC2)C(=O)N2CCC[C@@H]12 [Compound 1a, Cyclo [(1-Amino-1-Cyclopropane-Carboxylic Acid)-Pro]]
[2]
  mortality rate: 28.6%

## CC(C)(C)SC[C@@H]1NC(=O)[C@@H]2CCCN2C1=O [Compound 4a, Cyclo(t-Butyl-Cys-Pro)]
[2]
  mortality rate: 0%

## NC(=O)[C@@H]1CCCN1C(=O)C1(NC(=O)[C@@H]2CC(=O)N2)CC1 [Compound 10b, N^1-[1-[N—[(S)-4-Oxo-Azetidine-2-Carbonyl]Amino]Cyclopropane-Carbonyl]Prolinamide]
[3]
  performance deficits in the beamwalking task compared with saline vehicle: attenuated

## NC(=O)[C@@H]1CCCN1C(=O)C1(NC(=O)[C@@H]2CC(=O)N2)CCCCC1 [Compound 11b]
[3]
  performance deficits in the beamwalking task compared with saline vehicle: attenuated

## NC(=O)[C@H]1CSCN1C(=O)[C@H](Cc1cnc[nH]1)NC(=O)[C@@H]1CCCC(=O)N1 [MK-771]
[1]
  outcome following traumatic spinal cord injury: ineffective

## CC1(C)CCN(C(=O)[C@H](Cc2cnc[nH]2)NC(=O)[C@@H]2CCC(=O)N2)[C@@H]1C(N)=O [RX-77368]
[1]
  outcome following traumatic spinal cord injury: ineffective

## NC(=O)[C@@H]1CCCN1C(=O)[C@H](Cc1cnc[nH]1)NC(=O)[C@@H]1CCC(=O)N1 [TRH, L-pyroglutamyl-L-histidyl-L-prolinamide]
[4]
  electrical activity and neurological recovery after brainstem compression: improve electrical activity and neurological recovery
[5]
  neurological deficits after traumatic spinal cord injury: reduces neurological deficits
[6]
  plasma half-life: 4 to 5 min
[7]
  postconcussional behavioral suppression following head impact trauma: shorten postconcussional behavioral suppression

## NC(=O)[C@@H]1CCCN1C(=O)[C@H](Cc1cnc[nH]1)NC(=O)[C@@H]1CC(=O)N1 [YM-14673, N^α-[(S)-4-Oxo-Azetidine-2-Carbonyl]-L-Histidyl-L-Prolinamide]
[8]
  mean arterial blood pressure (MAP) compared with vehicle / other groups: significantly higher MAP
[9]
  latency to recovery of righting reflex compared with saline: significantly attenuated
[10]
  duration of action relative to TRH (longer acting): 8-36 times
  potency relative to TRH: 10-100 times
Rats following trauma
  chronic neurological recovery following trauma: improved chronic neurological recovery
[11]
  core temperature maintained: 37-38 °C
